In data set [1] the test system is male rats. The settings on record: 200 and 400 mg/kg/day; cited from earlier work.
Data set [2] has as its system male Sprague-Dawley rats. Nature of the data set: Assay 2: Effect on Prostate Weight. The note with it: subcutaneous injection daily for 14 days, compared to vehicle. In kind it is in vivo, rat. The protocol: Three-month-old male Sprague-Dawley rats are administered by subcutaneous injection control vehicle (10% ethanol in water), estradiol (30 μg/kg), testosterone (1 mg/kg), or a test compound according to the present invention daily for 14 days (n=6/group). After 14 days the animals are sacrificed, the prostate is removed, and the wet prostate weight is determined. Mean weight is determined and statistical significance (p<0.05) is determined compared to the vehicle-treated group using the Student's t-test.

The subject of data set [3] is male rats. The note with it: cited from earlier work.
For data set [4] the following is noted: unlike estrogen; cited from earlier work.

Consider 4 compounds from patent US6608203B2, “Tetrahydroisoquinoline compounds as estrogen agonists/antagonists” (Pfizer Inc., priority 1999, dated 2003).

With `CC/C(=C(\c1ccccc1)c1ccc(OCCN(C)C)cc1)c1ccccc1` [tamoxifen, 1-(4-β-dimethylaminoethoxyphenyl)-1,2-diphenyl-but-1-ene], the “weights of the testes and secondary sex organs” value in data set [1] was “reduces the weights of the testes and secondary sex organs”. Consider `C[C@]12CC[C@@H]3c4ccc(O)cc4CC[C@H]3[C@@H]1CC[C@@H]2O` [estrogen, estradiol], for which the “effect on wet prostate weight” value in data set [2] (estrogen at 30 μg/kg) is given as “significantly reduce prostate weight”.

With `O=C(c1ccc(OCCN2CCCCC2)cc1)c1c(-c2ccc(O)cc2)sc2cc(O)ccc12` [raloxifene, 6-hydroxy-2-(4-hydroxyphenyl)-3-[4-(2-piperidinoethoxy)benzoyl] benzo[b] thiophene], the “effect on ventral prostate” value in data set [3] is “regression of the ventral prostate”. Besides, in data set [4], the uterine stimulatory effect result was “minimal uterine stimulatory effect”. Consider `C[C@]12CC[C@H]3[C@@H](CCC4=CC(=O)CC[C@@]43C)[C@@H]1CC[C@@H]2O` [Testosterone, testosterone], for which the “effect on wet prostate weight” value in data set [2] (testosterone 1 mg/kg) was “no effect”.
